Tests used:
[1] = in vivo, absorbed by passive diffusion; cited from earlier work
[2] = human, in vivo; cited from earlier work
[3] = system: EMC virus; experiment: Test Example 1: inhibitory effects on EMCV in A549 cells, MTT assay; format: cell-based; conditions: A549 cells infected with EMC virus, IFN 20 IU/ml, fluvastatin 5 μM, UDCA 61.9 μM as named

SMILES	absorbed drug excreted in the form of bile [1]	hepatitis patients with continuous increase in transaminase levels [2]	share of such patients with increase in blood transaminase levels within 12 weeks after administration [2]	transaminase level elevation relative to upper limit of normal [2]	Average (MTT absorbance) ([3]; absorbance 550-600 nm, N 10)	Survival rate (antivirus activity) ([3]; vehicle = 0.0)
C[C@H](CCC(=O)O)[C@H]1CC[C@H]2[C@@H]3[C@@H](O)C[C@@H]4C[C@H](O)CC[C@]4(C)[C@H]3CC[C@]12C [ursodeoxycholic acid]	about 50%					
CC(C)n1c(/C=C/C(O)CC(O)CC(=O)O)c(-c2ccc(F)cc2)c2ccccc21 (racemic) [Fluvastatin, [R,S-(E)]-(±)-7-[3-(4-fluorophenyl)-1-(1-methylethyl)-1H-indol-2-yl]-3,5-dihydroxy-6-heptanoate]		about 1.1%	At least 90%	at least 3 times the upper limit of normal	0.8638	1.7
